What all share (format): functional
Assay [1] concerns Cortical neurone. Briefly: Neuroprotective activity against Sprague-Dawley rat cortical neurons assessed as glutamate-induced LDH release at 0.1 uM for 1 hr before glutamate challenge measured after 24 hrs by spectrophotometry. (In general: LDH in the medium is a marker of cell lysis.)
Assay [2] relates to Cortical neurone. Briefly: Neuroprotective activity against Sprague-Dawley rat cortical neurons assessed as glutamate-induced LDH release at 1 uM for 1 hr before glutamate challenge measured after 24 hrs by spectrophotometry.
The test system of assay [3] is Cortical neurone. Briefly: Neuroprotective activity against Sprague-Dawley rat cortical neurons assessed as glutamate-induced LDH release at 10 uM for 1 hr before glutamate challenge measured after 24 hrs by spectrophotometry.

Consider `COc1ccc(/C=C/C(=O)O[C@@]2(C)C[C@@H](O)[C@]3(O)C=CO[C@@H](O[C@@H]4O[C@H](CO)[C@@H](O)[C@H](O)[C@H]4O)[C@@H]32)cc1`, for which the Activity came out at 54.9% in the assay on Cortical neurone [1], 61.8% in the assay on Cortical neurone [2] and 58.9% with Cortical neurone [3].
On the same counts, the results for `COc1ccc(/C=C\C(=O)O[C@@]2(C)C[C@@H](O)[C@]3(O)C=CO[C@@H](O[C@@H]4O[C@H](CO)[C@@H](O)[C@H](O)[C@H]4O)[C@@H]32)cc1` are 40.7%, 48.2% and 49.6%.
The like results for `COc1ccc(/C=C\C(=O)OC[C@H]2O[C@@H](O[C@@H]3OC=C[C@@]4(O)[C@H](O)C[C@](C)(O)[C@@H]34)[C@H](O)[C@@H](O)[C@@H]2O)cc1` were, in that order, 33.3%, 47.6% and 46.6%.
The like results for `COc1ccc(/C=C/C(=O)OC[C@H]2O[C@@H](O[C@@H]3OC=C[C@@]4(O)[C@H](O)C[C@](C)(O)[C@@H]34)[C@H](O)[C@@H](O)[C@@H]2O)cc1` were, in that order, 39.1%, 60.9% and 60.3%.
`N#Cc1cc2c(cc1[N+](=O)[O-])=NC(=O)C(=O)N=2`: the figures for the Activity in the assay with Cortical neurone [1], with Cortical neurone [2] and with Cortical neurone [3] were 28.1%, 47.3% and 61.6%, respectively.
On the same counts, the results for `NC(CCCP(=O)(O)O)C(=O)O` (racemic) are 5.7%, 27.8% and 43.6%.
On the same counts, the results for `C[C@]12N[C@H](Cc3ccccc31)c1ccccc12.O=C(O)/C=C\C(=O)O` [DIZOCILPINE MALEATE] are 31.8%, 61.5% and 83.6%.
On the same counts, the results for `C[C@]1(O)C[C@@H](O)[C@]2(O)C=CO[C@@H](O[C@H]3O[C@H](CO)[C@@H](O)[C@H](O)[C@H]3O)[C@@H]21` [HARPAGIDE] are 41.4%, 42.2% and 46.2%.
Turning to `C[C@]1(OC(=O)/C=C/c2ccccc2)C[C@@H](O)[C@]2(O)C=CO[C@@H](O[C@@H]3O[C@H](CO)[C@@H](O)[C@H](O)[C@H]3O)[C@@H]21` [HARPAGOSIDE], the Activity with Cortical neurone [1] was 38.2%; in the assay on Cortical neurone [2], 38.5%; in the assay with Cortical neurone [3] it was 44.7%.
On the same counts, the results for `C[C@]1(OC(=O)/C=C\c2ccccc2)C[C@@H](O)[C@]2(O)C=CO[C@@H](O[C@@H]3O[C@H](CO)[C@@H](O)[C@H](O)[C@H]3O)[C@@H]21` [Z-harpagoside] are 26.4%, 38.8% and 42.5%.

These data come from ChEMBL document CHEMBL1150139, “Four new neuroprotective iridoid glycosides from Scrophularia buergeriana roots” (2002).
